From patent US20260337214A1, “IRON BASED MRI PROBES” (The General Hospital Corporation, priority 2022, published 2026)

What was measured:
Type in all cases: physicochemical
[1] = T1-relaxivity (r1) of Fe3+ versus Fe2+ complex at pH 7.4; conditions: for relaxivity r1: normalized to Fe concentration, Fe^2+ formed in situ with excess sodium ascorbate
Description: FIG. 7 compares the relaxivity (r1; the Fe induced increase in T1 relaxation rate (R1) normalized to Fe concentration in mM) recorded for Fe^3+-CDTA-Ph-3,5-CF3 and Fe^2+-CDTA-Ph-3,5-CF3 at pH 7.4.
(§1) The term “relaxivity” as used herein, refers to the increase in either of the MR quantities 1/T1 or 1/T2 per millimolar (mM) concentration of paramagnetic ion or contrast agent, which quantities may be different if the contrast agent contains a multiplicity of paramagnetic ions, wherein T1 is the longitudinal or spin-lattice relaxation time, and T2 is the transverse or spin-spin relaxation time of water protons or other imaging or spectroscopic nuclei, including protons found in molecules other than water. Relaxivity is expressed in units of mM^−1s^−1.
FIG. 7 compares the relaxivity (r1; the Fe induced increase in T1 relaxation rate (R1) normalized to Fe concentration in mM) recorded for Fe^3+-CDTA-Ph-3,5-CF3 and Fe^2+-CDTA-Ph-3,5-CF3 at pH 7.4. The Fe^2+ complex was formed in situ by addition of excess sodium ascorbate. The r1 values for the Fe^3+ complex ([…] mM^−1s^−1) is 7.5-times greater than the sister Fe^2+ complex (2.8±0.003 mM^−1s^−1).

[2] = T1-relaxivity (r1) as a function of pH
Description: FIG. 5A compares the pH-dependence on T1-relaxivity (r1; the Fe induced increase in T1 relaxation rate (R1) normalized to Fe concentration in mM) for the structurally related Fe^3+ complexes Fe-CDTA-Ph-3,5-CF3 and Fe-PyCy2AI.
as §1
FIG. 5, Panel A, compares the pH-dependence on T1-relaxivity (r1; the Fe induced increase in T1 relaxation rate (R1) normalized to Fe concentration in mM) for the structurally related Fe^3+ complexes Fe-CDTA-Ph-3,5-CF3 and Fe-PyCy2AI.

[3] = Cyclic voltammetry; conditions: 0.5 M KNO3, GC working, Ag/AgCl reference, Pt counter electrode
[4] = pH-potentiometric titration combined with EDTA competition assay; conditions: estimated
Method: The title compound was synthesized in situ by mixing the compound obtained in step 1 with 0.5 molar equiv. Fe2(SO4)3, (i.e., 1 molar equiv. Fe^3+). In one representative sample preparation, used for pH-potentiometry measurements, 7.2 mg (0.011 mmol) Ligand were mixed with 4.4 mg (0.011 mmol Fe) were mixed in 3.4 mL water (with 0.1 M NaCl), and the pH adjusted using 0.1 M NaOH. ESI-MS for [C22H22F6FeN3O7]^−: m/z [M^−]=609.1 (calc.); m/z=609.1(obsv.)
From the titration data (performed in combination with EDTA competition assay at pH 3), a log K=23.7 s estimated for Fe-CDTA-Ph-3,5-CF3.

relaxivity r1 ([1]; pH 7.4) [mM⁻¹ s⁻¹] | speciation at pH 7.4 ([2]; pH 7.4) | r1 (T1-relaxivity), comparison in words ([2]; pH 7.4, compared with Fe-PyC3A / Fe-PyCy2AI) | pKa ([2]; r1 vs pH, read-out: pKa of the Fe^3+ water co-ligand) | ratio of r1 Fe^3+ complex to Fe^2+ complex ([1]; pH 7.4) | ratio of r1 Fe^3+ complex to Fe^2+ complex (heading of Example 5) ([1]; stated in heading) | oxidation and reduction waves, reversibility ([3]; pH 3) | separation of oxidation and reduction waves ([3]; pH 8) [V] | log K (Fe^3+ complex stability) ([4]; pH-potentiometric titration in combination with EDTA competition assay at pH 3) | pKa ([4]; water, 0.1 m nacl, pH-potentiometric titration, 1 molar equiv. Fe^3+, read-out: pKa (deprotonation of ML to MLH−1)) | Structure (SMILES)
2.8 ± 0.003 |  |  |  |  |  |  |  |  |  | O=C(O)CN(CC(=O)O)C1CCCCC1N(CC(=O)O)CC(=O)Nc1cc(C(F)(F)F)cc(C(F)(F)F)c1.[Fe+2] (centres unmarked) [Fe^2+-CDTA-Ph-3,5-CF3]
2.1 ± 0.11 | dominated by the monomeric complex | much greater | > 7.4 | 7.5 -times | 10 -fold | reversible oxidation and reduction waves | ~1 | 23.7 | 4.9 | O=C(O)CN(CC(=O)O)C1CCCCC1N(CC(=O)O)CC(=O)Nc1cc(C(F)(F)F)cc(C(F)(F)F)c1.[Fe+3] (centres unmarked) [Fe-CDTA-Ph-3,5-CF3]
